The source of these data is the supplement of paper PMC11061612.

The test system of experiment [1] is SW1710 (Bladder Carcinoma). In words: Bliss excess, mean over the matrix (fraction); higher = more synergy. The method in brief:
(§1)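 Bliss excess equals the observed combination effect minus the expected value EA + EB − EA·EB, where EA and EB are the effects of each agent alone. Combination Emax is the second-highest inhibition within the matrix. Inhibition was scaled from CellTiter-Glo 2.0 luminescence, with 0 set by vehicle wells and 1 by blank wells, after 72 hours of two-drug dosing of cells plated in 1536-well plates.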

Experiment [2] concerns HuH-7 (Hepatocellular Carcinoma). The experiment is described as above. A digest of the protocol: as §1
The subject of experiment [3] is CAL-33 (Oral Cavity Carcinoma). Described as above. A digest of the protocol: as §1
Experiment [4] relates to BE-13 (T-Lymphoblastic Leukemia). The description is as above. The method in brief: as §1
The test system of experiment [5] is NCI-H209 (Small Cell Lung Carcinoma). The description is as above. The method in brief:
as §1

For the next experiment, the system named is MPP-89 (Mesothelioma). Described as above. A digest of the protocol: as §1
The subject of experiment [6] is OV-56 (Ovarian Carcinoma). The experiment is described as above. A digest of the protocol:
as §1

Another experiment has as its system EW-11 (Ewing's Sarcoma). Described as above. The method in brief: as §1
Experiment [7] concerns SAS (Oral Cavity Carcinoma). Described as above. The method in brief:
as §1

Another experiment has as its system NCI-H2052 (Mesothelioma). The experiment is described as above. The method in brief: as §1
The subject of experiment [8] is Detroit562 (Head and Neck Carcinoma). The experiment is described as above. The method in brief: as §1
The test system of experiment [9] is SW1573 (Lung Adenocarcinoma). Described as above. The method in brief: as §1
For experiment [10], the system named is OVCAR-5 (Ovarian Carcinoma). The experiment is described as above. The method in brief: as §1
The subject of experiment [11] is TGBC1TKB (Biliary Tract Carcinoma). The experiment is described as above. The method in brief: as §1
For experiment [12], the system named is ALL-PO (B-Lymphoblastic Leukemia). Described as above. A digest of the protocol: as §1
For experiment [13], the system named is HH (T-Cell Non-Hodgkin's Lymphoma). Described as above. The method in brief: as §1
The subject of experiment [14] is NCI-H209 (Small Cell Lung Carcinoma). Kind of experiment: combination Emax (second highest fraction inhibited in the dose matrix, 72 h); higher = more inhibition; extreme values may be limits of the assay. A digest of the protocol: as §1
The subject of experiment [15] is NCI-H524 (Small Cell Lung Carcinoma). Described as above. A digest of the protocol:
as §1

For experiment [16], the system named is YAPC (Pancreatic Carcinoma). The description is as above. The method in brief:
as §1

In experiment [17] the test system is BFTC-909 (Kidney Carcinoma). Described as above. A digest of the protocol:
as §1

With `COc1cc2c(cc1OCCCCCOc1cc3c(cc1OC)C(=O)N1C=C(C)C[C@H]1C=N3)N=C[C@@H]1CC(C)=CN1C2=O` [SG3199] + O=C(c1cc(Cc2n[nH]c(=O)c3ccccc23)ccc1F)N1CCN(C(=O)C2CC2)CC1 [Olaparib] (first compound max 0.001 µM, 7x7, partner max 10 µM), the Bliss excess in [1] is -0.0334; in experiment [2], -0.0363; in [3], -0.0198; in experiment [4], -0.0469; in [5], 0.0051; with MPP-89 (Mesothelioma), -0.0391. The Bliss excess in experiment [6] was -0.0297; with EW-11 (Ewing's Sarcoma) it was -0.051; in [7] it was -0.03; in the experiment with NCI-H2052 (Mesothelioma), -0.0319; in [8], -0.0252; in [9] it was -0.0312. Further, the Bliss excess in experiment [10] is -0.0314; in experiment [11], -0.0438; in experiment [12], -0.0276; in experiment [13], -0.0344. Also, the “combination Emax” value in experiment [14] was 0.913; in experiment [15] it was 0.196; in experiment [16] it was 0.0017; in [17], 0.0989.

For the compound `C[C@@H](c1ccc2nccn2c1)n1nnc2ncc(-c3cnn(C)c3)nc21` [Savolitinib] + CC1(C)CCC(CN2CCN(c3ccc(C(=O)NS(=O)(=O)c4ccc(NCC5CCOCC5)c([N+](=O)[O-])c4)c(Oc4cnc5[nH]ccc5c4)c3)CC2)=C(c2ccc(Cl)cc2)C1 [Venetoclax] (first compound max 1 µM, 7x7, partner max 1 µM), the Bliss excess is -0.0561 in [1]; -0.0573 in experiment [2]; -0.0211 in [3]; -0.0307 in experiment [4]; -0.0361 in experiment [5]; -0.0566 in the experiment with MPP-89 (Mesothelioma). Further, the Bliss excess is -0.0419 in experiment [6]; -0.0096 in the experiment with EW-11 (Ewing's Sarcoma); -0.0388 in [7]; -0.0549 in the experiment with NCI-H2052 (Mesothelioma); -0.0322 in experiment [8]; -0.0736 in experiment [9]. Moreover, the Bliss excess in experiment [10] is -0.0597; in experiment [11], -0.0122; in experiment [12], 0.035; in [13], -0.0712. Further, the “combination Emax” value turned out to be 0.373 in experiment [14], 0.13 in experiment [15], 0.113 in [16] and 0.242 in experiment [17].

As to `Cc1cc2ncnn2cc1Nc1ncc2c(n1)n(C1CCOCC1)c(=O)n2C` [AZD7648] + CN(C)CCCOc1ccc(-c2ccc3ncc4c(c3c2)n(C2CCOCC2)c(=O)n4C)cn1 [AZD0156] (first compound max 10 µM, 7x7, partner max 1 µM), the Bliss excess was -0.01 in experiment [1]; -0.006 in experiment [2]; 0.0227 in experiment [3]; -0.0188 in experiment [4]; 0.048 in experiment [5]; 0.0139 with MPP-89 (Mesothelioma). Also, the Bliss excess was 0.0081 in experiment [6]; -0.0549 with EW-11 (Ewing's Sarcoma); 0.0623 in experiment [7]; 0.0038 in the experiment with NCI-H2052 (Mesothelioma); 0.0129 in experiment [8]; -0.0114 in experiment [9]. The Bliss excess in [10] was -0.0244; in experiment [11] it was -0.027; in [12], 0.0524; in experiment [13], -0.0338. Besides, the “combination Emax” value came out at 0.237 in experiment [14], 0.312 in [15], 0.209 in experiment [16] and 0.338 in [17].

On to `Cc1nc(Nc2ncc(C(=O)Nc3c(C)cccc3Cl)s2)cc(N2CCN(CCO)CC2)n1` [Dasatinib] + CC(=O)Nc1cccc(-n2c(=O)n(C3CC3)c(=O)c3c(Nc4ccc(I)cc4F)n(C)c(=O)c(C)c32)c1 [Trametinib] (first compound max 2 µM, 7x7, partner max 1 µM), for which the Bliss excess was -0.0546 in [1]; 0.0586 in [2]; -0.0189 in experiment [3]; 0.123 in [4]; -0.039 in experiment [5]; -0.0661 in the experiment with MPP-89 (Mesothelioma). Moreover, the Bliss excess was 0.0114 in experiment [6]; -0.0404 in the experiment on EW-11 (Ewing's Sarcoma); 0.0083 in [7]; -0.0528 in the experiment on NCI-H2052 (Mesothelioma); -0.0007 in experiment [8]; -0.0715 in experiment [9]. Moreover, the Bliss excess is 0.0217 in [10], 0.123 in experiment [11], 0.0238 in [12] and -0.0188 in experiment [13]. Moreover, the “combination Emax” value in [14] was 0.124; in [15], 0.0954; in [16], 0.7; in experiment [17], 0.35.
